Measurements published in patent US12071436B2, “Anti-parasitic compounds and uses thereof” (Memorial Sloan-Kettering Cancer Center, priority 2016, dated 2024).

Assays:
Assay type in all cases: in vitro ADME
Plasma stability = details: C57BL/6; 10 μM in undiluted mouse plasma, 37° C., out to four hours; read-out: plasma stability (t1/2, mouse)
Protocol: To evaluate the plasma stability of selected compounds, 10 μM of each selected compound was incubated with undiluted plasma. Plasma was freshly obtained from C57BBl\6 mice drawn in the vivarium and used immediately. Plasma was brought to 37° C. within a 96-well plate and then the compound is introduced via a DMSO stock solution. The sample was continually shaken at 37° C. and aliquots are removed at multiple time points out to four hours. Aliquots were added to acetonitrile (5× v:v) to stop any enzymatic activity and held on ice. At the end of the assay, the samples were centrifuged through a Millipore Multiscreen Solvinter 0.45 micron low binding PTFE hydrophilic filter plate and analyzed by LC-MS/MS. Data was log transformed and represented as half-life.

[1] = Plasma protein binding by equilibrium dialysis; details: mouse, 37° C.
Protocol: To evaluate the plasma protein binding of selected compounds, equilibrium dialysis was used. All samples of the selected compounds were tested in triplicate using the RED Rapid Equilibrium Dialysis Device (Thermo Scientific). The initial drug concentration in the plasma chamber was 5 μM and phosphate buffered saline was added to the receiver chamber. The plate was covered and allowed to shake in a 37° C. incubator for 6 hours. 25 μl was sampled from the plasma and PBS chambers which were then diluted with either blank PBS or plasma to achieve a 1:1 ratio or plasma:PBS for all samples. The concentration of drug in the plasma and PBS chambers were determined by LC-MS/MS. The fraction bound was calculated as ([plasma]−[PBS])/[plasma].

[2] = Caco-2 bi-directional permeability; details: human, Caco-2, pH 7.4
Protocol: To evaluate the bi-directional Caco-2 permeability of compounds 21 and 37, Caco-2 cells were grown in Dulbecco's Modified Eagle Medium (DMEM) (20% Fetal bovine serum (FBS)) until 85-90% confluence. After attaining required confluence, cells were trypsinized and seeded into 24 well millcell plates at a density of 0.6×10^5 cells/insert. The plates were maintained for 21 days at 37° C. in CO2 incubator with change of medium every alternative day. Monolayer integrity was monitored by measuring Trans-epithelial electrical resistance (TEER) from day 15. Caco-2 cell monolayer was washed twice with HBSS and incubated for 30 min in CO2 incubator. TEER values were measured and wells showing TEER values above 230 ohms·cm2 were taken for experiments. Bi-directional permeability study was initiated by adding appropriate volume of HBSS containing the test compounds or probe P-gp substrate loperamide to either the apical (A-B transport) or basal side (B-A transport) of the monolayer. At selected time points (0, 15, 30, 60 and 90 mins) an aliquot of 50 μL was collected from the receiver compartment for determination of test compound concentrations. The volume withdrawn was replaced immediately with plain HBSS buffer (pH 7.4). TEER was measure at the end of the experiment to test the post experiment monolayer integrity. […]

[3] = Metabolic stability in mice liver microsomes (MLM), 0.25 mg/mL; details: mouse, pH 7.4, 1 μM compound, 0.25 mg/mL microsomes, NADPH, read-out: microsomal stability (t1/2, mouse): 0.25 mg/mL hepatic microsomes
Protocol: To evaluate the metabolic stability of compounds 21 and 37 in mice liver microsomes (MLM), a 1120 μL aliquot of potassium phosphate buffer (50 mM, pH 7.4) containing mice liver microsomes (0.357 mg/mL) was added to individual 2 mL tubes (final concentration 0.25 mg/mL). Imipramine in MLM was run as positive controls. Test compounds (compound 21 or compound 37) and positive control compounds (1 mM DMSO stocks) were directly spiked into respective tubes to prepare a concentration of 1.428 μM (final concentration 1 μM). From the above mix, 70 μL was added to individual wells of 96 well reaction plates and pre-incubated in a 37° C. water bath for 5 min. All the reactions were initiated by adding 30 μL of 3.33 mM NADPH (final concentration 1 mM). Reactions without NADPH and heat inactivated microsomes minus NADPH (0 min and 60 min) were also incubated to rule out non-NADPH metabolism or chemical instability in the incubation buffer. All reactions were terminated using 100 μL of ice-cold acetonitrile containing internal standard (glipizide—2 μM) at 0, 5, 15 and 60 min. The plates were centrifuged at 4000 RPM for 15 min and 100 μL aliquots were submitted for analysis by LC-M/MS. Samples were monitored for parent compound disappearance in Multiple reaction monitoring (MRM) mode using LC-MS/MS.

| Structure (SMILES) | half-life at 10 μM (Plasma stability) [min] | fraction unbound at 6 h, 5 μM [1] | efflux ratio at 90 min [2] | half-life at 1 μM [3] [min] |
| --- | --- | --- | --- | --- |
| CN(C)CC#Cc1cccc(-c2nc(C(=O)NCc3ccc4c(c3)OCO4)cc3c2[C@@H](CCO)N([S@+]([O-])C(C)(C)C)C3)c1 [compound 21, (R)-N-(Benzo[d][1,3]dioxol-5-ylmethyl)-2-((R)-tert-butylsulfinyl)-4-(3-(3-(dimethyl-amino)prop-1-yn-1-yl)phenyl)-3-(2-hydroxyethyl)-2,3-dihydro-1H-pyrrolo[3,4-c]pyridine-6-carboxamide] | > 240 | 0.045 | 24.9 | 46 |
| CN(C)CC#Cc1cccc(-c2nc(C(=O)N[C@@H]3CCN(Cc4ccccc4)C3)cc3c2[C@@H](CCO)N([S@+]([O-])C(C)(C)C)C3)c1 [compound 37, (R)-N-((R)-1-Benzylpyrrolidin-3-yl)-2-((R)-tert-butylsulfinyl)-4-(3-(3-(dimethylamino)prop-1-yn-1-yl)phenyl)-3-(2-hydroxyethyl)-2,3-dihydro-1H-pyrrolo[3,4-c]pyridine-6-carboxamide] | > 240 | 0.081 | 13.2 | 13 |
